Experimental data published in patent US20260008818A1, “CYCLIC PEPTIDE OR SALT THEREOF, AND USES THEREOF” (FUJIFILM Corporation, priority 2023, published 2026).
Numbered stars: 1 amine (or outer) side, 2 acyl side, 3 side chain; on linkers, the order of the positions; unused ones are H or OH. Bridge positions count the residues as written; N and C are the ends. Ends that are not written are not given here. acetyl = K(acetyl): lysine side chain modified with a haloacetyl group whose halogen is replaced by the thiol of another residue, giving a thioether ring, O=C(C[*:1])[*:2]; COCH2 = acetyl group that carries the bridge

Test system: Recombinant Human FGFR1 alpha (IIIc) Fc Chimera Protein
Assay: Binding affinity of enzymatically synthesized cyclic peptide to FGFR by ELISA
Conditions: luminescence signal at reaction concentration 10 nmol/L, SEQ ID NO: 39 standardized to 1, enzyme synthesis product
Experimental: The binding affinity of the cyclic peptide to FGFR was evaluated using an ELISA method.
The binding affinity of the enzymatically synthesized cyclic peptide to FGFR was measured by evaluating the amount of the cyclic peptide bound to FGFR by ELISA.
First, 5 ng of Recombinant Human FGFR1 alpha (IIIc) Fc Chimera Protein CF (R&D systems, 658-FR-050) was immobilized in each well of a 96-well plate, and blocked with Pierce Protein-Free (PBS) Blocking Buffer (Thermo, 37572), and a cyclic peptide diluted with Can Get Signal Immunoreaction Enhancer Solution I (TOYOBO, NKB-101) was then added and reacted at room temperature for 3 hours. After washing with 0.05% Tween 20-containing phosphate buffered saline (PBS), an anti-Myc antibody (Cell Signaling, 14038S) diluted with Can Get Signal Immunoreaction Enhancer Solution II (TOYOBO, NKB-101) was added and reacted at room temperature for 2 hours. After washing with 0.05% Tween 20-containing PBS, SuperSignal ELISA Femto Substrate (Thermo, 37075) was added, and the luminescence amount was measured. The dose-response relationship was calculated from using the difference between the luminescence amount in the well in which FGFR was immobilized and the luminescence amount in the well in which FGFR was not immobilized, and the concentration of the cyclic peptide at the time of reaction, and the binding affinity to FGFR was evaluated according to the following evaluation criteria. The evaluation result preferably satisfies the evaluation criteria A, B, or C.
In a case where a value of a luminescence signal emitted by the cyclic peptide set forth in SEQ ID NO: 39 at a reaction concentration of 10 nmol/L is standardized to 1, evaluation criteria of the luminescence signal value emitted by the cyclic peptide at a reaction concentration of 10 nmol/L is as follows. • A: 0.7 or more • B: 0.5 or more and less than 0.7 • C: 0.1 or more and less than 0.5 • D: less than 0.1.

Substance	Evaluation result of binding affinity to FGFR
84 (HCLYERLQFHGHEAPFRVKV; not fully specified; Description of Artificial Sequence: Cyclic peptide) [compound 84]	A (0.7 or more)
85 (HCIYERLQFHGHEAPFRVKV; not fully specified; Description of Artificial Sequence: Cyclic peptide) [compound 85]	A (0.7 or more)
86 (HCVYERLQFHGHEAPFRVKV; not fully specified; Description of Artificial Sequence: Cyclic peptide) [compound 86]	A (0.7 or more)
87 (HCFYERLQFHGHEAPFRVKV; not fully specified; Description of Artificial Sequence: Cyclic peptide) [compound 87]	A (0.7 or more)
88 (HCYYERLQFHGHEAPFRVKV; not fully specified; Description of Artificial Sequence: Cyclic peptide) [compound 88]	A (0.7 or more)
89 (HCWYERLQFHGHEAPFRVKV; not fully specified; Description of Artificial Sequence: Cyclic peptide) [compound 89]	A (0.7 or more)
90 (HCNYERLQFHGHEAPFRVKV; not fully specified; Description of Artificial Sequence: Cyclic peptide) [compound 90]	A (0.7 or more)
91 (HCQYERLQFHGHEAPFRVK(COCH2)V; thioether 2-19 via acetyl; not fully specified; printed as H-(C)-QYERLQFHGHEAPFRV-(K(acetyl))-V) [compound 91]	A (0.7 or more)
92 (HCTYERLQFHGHEAPFRVK(COCH2)V; thioether 2-19 via acetyl; not fully specified; printed as H-(C)-TYERLQFHGHEAPFRV-(K(acetyl))-V) [compound 92]	A (0.7 or more)
100 (HCSFERLQFHGHEAPFRVK(COCH2)V; thioether 2-19 (inferred)) [compound 100]	A (0.7 or more)
101 (HCSWERLQFHGHEAPFRVK(COCH2)V; thioether 2-19 (inferred)) [compound 101]	A (0.7 or more)
102 (HCSSERLQFHGHEAPFRVK(COCH2)V; thioether 2-19 (inferred)) [compound 102]	C (0.1 or more and less than 0.5)
103 (HCSTERLQFHGHEAPFRVK(COCH2)V; thioether 2-19 (inferred)) [compound 103]	A (0.7 or more)
104 (HCSHERLQFHGHEAPFRVK(COCH2)V; thioether 2-19 (inferred)) [compound 104]	C (0.1 or more and less than 0.5)
105 (HCSYERLQFHFHEAPFRVK(COCH2)V; thioether 2-19 (inferred)) [compound 105]	C (0.1 or more and less than 0.5)
106 (HCSYERLQFHWHEAPFRVK(COCH2)V; thioether 2-19 (inferred)) [compound 106]	C (0.1 or more and less than 0.5)
107 (HCSYERLQFHNHEAPFRVK(COCH2)V; thioether 2-19 (inferred)) [compound 107]	C (0.1 or more and less than 0.5)
108 (HCSYERLQFHQHEAPFRVK(COCH2)V; thioether 2-19 (inferred)) [compound 108]	C (0.1 or more and less than 0.5)
109 (HCSYERLQFHSHEAPFRVK(COCH2)V; thioether 2-19 (inferred)) [compound 109]	C (0.1 or more and less than 0.5)
110 (HCSYERLQFHGFEAPFRVK(COCH2)V; thioether 2-19 (inferred)) [compound 110]	B (0.5 or more and less than 0.7)
